Test results as given in US20180049457A1, “ENZYMATIC SYNTHESIS OF SOLUBLE GLUCAN FIBER” (E I DU PONT DE NEMOURS AND COMPANY, priority 2014, published 2018).

Key:
intestinal microbiota = experiment: In vitro gas production by intestinal microbiota (pre-conditioned faecal slurry); type: cell-based
Experimental: To measure the formation of gas by the intestinal microbiota, a pre-conditioned faecal slurry was incubated with test prebiotic (oligosaccharide or polysaccharide soluble fibers) and the volume of gas formed was measured. Fresh faecal material was pre-conditioned by dilution with 3 parts (w/v) of anaerobic simulator medium, stirring for 1 h under anaerobic conditions and filtering through 0.3-mm metal mesh after which it was incubated anaerobically for 24 h at 37° C.
The simulator medium used was composed as described by G. T. Macfarlane et al. (Microb. Ecol. 35(2):180-7 (1998)) containing the following constituents (g/L) in distilled water: starch (BDH Ltd.), 5.0; peptone, 0.05; tryptone, 5.0; yeast extract, 5.0; NaCl, 4.5; KCl, 4.5; mucin (porcine gastric type III), 4.0; casein (BDH Ltd.), 3.0; pectin (citrus), 2.0; xylan (oatspelt), 2.0; arabinogalactan (larch wood), 2.0; NaHCO3, 1.5; MgSO4, 1.25; guar gum, 1.0; inulin, 1.0; cysteine, 0.8; KH2PO4, 0.5; K2HPO4, 0.5; bile salts No. 3, 0.4; CaCl2×6 H2O, 0.15; FeSO4×7 H2O, 0.005; hemin, 0.05; and Tween 80, 1.0; cysteine hydrochloride, 6.3; Na2S×9 H2O, and 0.1% resazurin as an indication of sustained anaerobic conditions. The simulation medium was filtered through 0.3 mm metal mesh and divided into sealed serum bottles.
Test prebiotics were added from 10% (w/w) stock solutions to a final concentration of 1%. The incubation was performed at 37° C. while maintaining anaerobic conditions. Gas production due to microbial activity was measured manually after 24 h incubation using a scaled, airtight glass syringe, thereby also releasing the overpressure from the simulation unit.
Solutions of chromatographically-purified soluble oligosaccharide/polysaccharide fibers were dried to a constant weight by lyophilization. The individual soluble oligosaccharide/polysaccharide soluble fiber samples were subsequently evaluated as carbon source for in vitro gas production using the method described in the General Methods. PROMITOR® 85 (soluble corn fiber, Tate & Lyle), NUTRIOSE® FM06 (soluble corn fiber or dextrin, Roquette), FIBERSOL-2® 600F (digestion-resistant maltodextrin, Archer Daniels Midland Company & Matsutani Chemical), ORAFTI® GR (inulin from Beneo, Mannheim, Germany), LITESSE® Ultra™ (polydextrose, Danisco), GOS (galactooligosaccharide, Clasado Inc., Reading, UK), ORAFTI® P95 (oligofructose (fructo-oligosaccharide, FOS, Beneo), LACTITOL MC (4-O-β-D-Galactopyranosyl-D-glucitol monohydrate, Danisco) and glucose were included as control carbon sources. Table 61 lists the In vitro gas production by intestinal microbiota at 3 h and 24 h. Table 62 lists the in vitro gas production by intestinal microbiota from controls and the sequences identified from the GTF0459 homolog sequence search. Table 63 lists the in vitro gas production by intestinal microbiota from controls and truncations of homolog sequences identified from the GTF0459 homolog sequence search.

human faecal microbiota = experiment: Colonic fermentation modeling (semi-continuous colon simulator) and measurement of fatty acids; type: cell-based; settings: test component 1% in ileal fluid, 48 h
Excerpt: Colonic fermentation was modeled using a semi-continuous colon simulator as described by Makivuokko et al. (Nutri. Cancer (2005) 52(1):94-104); in short; a colon simulator consists of four glass vessels which contain a simulated ileal fluid as described by Macfarlane et al. (Microb. Ecol. (1998) 35(2):180-187). The simulator is inoculated with a fresh human faecal microbiota and fed every third hour with new ileal liquid and part of the contents is transferred from one vessel to the next. The ileal fluid contains one of the described test components at a concentration of 1%. The simulation lasts for 48 h after which the content of the four vessels is harvested for further analysis. The further analysis involves the determination of microbial metabolites such as short chain fatty acids (SCFA); also referred to as volatile fatty acids (VFA) and branched chain fatty acids (BCFA). Analysis was performed as described by Holben et al. (Microb. Ecol. (2002) 44:175-185); in short; simulator content was centrifuged and the supernatant was used for SCFA and BCFA analysis. Pivalic acid (internal standard) and water were mixed with the supernatant and centrifuged. After centrifugation, oxalic acid solution was added to the supernatant and then the mixture was incubated at 4° C., and then centrifuged again. The resulting supernatant was analyzed by gas chromatography using a flame ionization detector and helium as the carrier gas. Comparative data generated from samples of LITESSE® ULTRA™ (polydextrose, Danisco), ORAFTI® P95 (oligofructose; fructo-oligosaccharide, “FOS”, Beneo), lactitol (Lactitol MC (4-O-β-D-galactopyranosyl-D-glucitol monohydrate, Danisco), and a negative control is also provided. The concentration of acetic, propionic, butyric, isobutyric, valeric, isovaleric, 2-methylbutyric, and lactic acid was determined (Table 64).

[1] = GTF activity of strains (PAHBAH assay); type: biochemical; settings: enzyme expressed in B. subtilis host
Method in brief: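 Glucosyltransferase (GTF) activity of the bacterial strains was measured with the PAHBAH assay. The enzymes tested were truncated GTF variants produced in a Bacillus subtilis expression host. Measurements were split across three separate experiments, and each activity value is reported together with the experiment it came from because results varied slightly between experiments.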

## O.OC[C@@H](O)[C@@H](O[C@@H]1O[C@H](CO)[C@H](O)[C@H](O)[C@H]1O)[C@H](O)[C@@H](O)CO [LACTITOL ® MC]
Intestinal microbiota; Table 61
  mL gas formation in 3 h: 2.0 mL
Intestinal microbiota; Table 62
  mL gas formation in 3 h: 2.0 mL
  mL gas formation in 24.5 h: 1.5 mL
Intestinal microbiota; Table 63
  mL gas formation in 3 h: 3.0 mL
  mL gas formation in 24.5 h: 2.0 mL
Intestinal microbiota; 24 h, Table 61
  mL gas formation in 24 h: 4.8 mL

## O.OC[C@@H](O)[C@@H](O[C@@H]1O[C@H](CO)[C@H](O)[C@H](O)[C@H]1O)[C@H](O)[C@@H](O)CO [LACTITOL MC, 4-O-β-D-Galactopyranosyl-D-glucitol monohydrate]
Human faecal microbiota
  Acetic: 318 mM
  Branched Chain Fatty Acids (BCFA): 7.5 mM
  Butyric: 94 mM
  Lactic: 52 mM
  Propionic: 42 mM
  Short Chain Fatty Acids (SCFA): 506 mM

B1: GTF0974T4: T4 C-terminal truncation of GTF0974 glucosyltransferase, SEQ ID NO: 128, strain SG1316 (protein)
chain: INGKQYYVNSDGSVRKNFVFEQDGKSYYFDAETGALATKSQDEFSTEPIKATVDFSSGNQLYKNDDKSLDQLDTFITADAWYRPKSILKDGKTWTASTEADKRPLLMVWWPDKSTQVNYLNYMQNQGLGAGSFSTNSSQESLDQAAKAVQTKIEERIAREGNTNWLRTSIDQFIKTQPGWNSSTENSSYDHLQGGQLLFNNSKGDTGNRTSHANSDYRLLNRTPTNQTGTRKYFKDNSIGGLEFLLANDIDNSNPAVQAEQLNWLHFMMNIGSIMANDPTANFDGLRVDALDNVDADLLQIASDYFKAAYGVDKSEANAIKHLSYLEAWSANDPYYNKDTKGAQLPIDNALRNALTNLLMRDKNTRMQLGDMTAFINSSLNPRGANDKNGERMANYIFTRAHDTEAQTIIQRIIRDRINPNLFGYNFTRDEIKKAFEIYNEDIDKAHKTYASYNLPSVYALMLTNKDSVTRVYYGDLYREDGHYMAKKTPYFDAIDTLLRARIKYVAGGQDMEVKKVGNDGLLTSVRYGKGANNRTDLGTSETRTQGMGVIMTNNYDFRLGSNETVTMNMGRAHRNQLYRPLLLTTKDGIATYLNDSDVPKKLLKRTDWNGNLTFNANDVFGVENVQVSGYLGVWVPYGAKANQDARTQPSNRANSDGQVYKSSAALDSQVMYEAFSNFQAFADDQPELYMNRVLAKNTDLLKAWGITSVGLPPQYVSSKDGTFLDSTIDNGYAFDDRYDMALSQNNKYGSLEDLLNVLRALHKDGIQAIADWVPDQIYNLPGKEVVNATRVNGYGNHQVGYQIIDQAYVANTRTDGTDYQGKYGGAFLDELKAKYPSIFNRVQISNGKQLPTNEKITKWSAKYFNGTNILGRGINYVLRDDKTNQYFNTSANSQLLPTPLRDTGAITSTQVFQRRGQDVYFLRDNQAVKNEFVQDGNGNWYYFGGDGKMTKGAQNINNKDYYFFDNGIQLRNALRRASNGYTYYYGLDGAMVKNAFVDFDDKHK
modifications: T4 C-terminal truncation of GTF0974
[1]; Experiment Number 2
  GTF activity of strains: Acitivity: 47.2 U/mL
[1]; Experiment Number 3
  GTF activity of strains: Acitivity: 33.9 U/mL
